# System: periosteal explants
# Test: In vitro periosteal chondrogenesis, organ culture model in alginate gel suspension
# Type: cell-based
# Details: 10 ng/ml; for Chondrogenesis (H & E; Safranin-O): first two weeks
# Procedure: A further in vitro study of periosteal chondrogenesis has been performed to evaluate an organ culture model using an alginate gel suspension. Briefly, periosteal explants of approximate dimensions 3×3 mm were cultured in an alginate gel suspension and supplemented with either TGF-β1, b-FGF, a combination of the two, or in the absence of growth factors. b-FGF and TGF-β1 were administered at a concentration of 10 ng/ml every two days at each media change for the first week and first two weeks of in vitro culture respectively.
# Additionally the cultures were supplemented daily with 50 μg/ml ascorbic acid for the first four weeks of in vitro culture. Results from histological analysis (H & E; and Safranin-O staining) of the explants performed at 1, 3, 6 and 8 week timepoints, were similar to those from the organ culture model utilizing the agarose gel (data not shown). Namely, after a period of 1 week in vitro culture, none of the explants stained positive for glycosaminoglycans using Safranin-O staining. Significant neo-chondrogenesis from the periosteum was not observed for explants cultured in the absence of added growth factors or supplemented with b-FGF alone over the period of 8 weeks. […] Safranin-O stains of typical periosteal explants after 1, 3, 6 and 8 weeks in vitro culture when b-FGF and TGF-β1 were administered for the first week and first two weeks of in vitro culture were observed.
Substance,Chondrogenesis (H & E; Safranin-O) (after 3 weeks in vitro culture),Chondrogenesis (H & E; Safranin-O) (after 8 weeks in vitro culture),Significant neo-chondrogenesis from the periosteum (H & E; Safranin-O) (over the period of 8 weeks in vitro culture)
TGF-β1: transforming growth factor,apparent,most pronounced,–
b-FGF: basic fibroblast growth factor,–,–,not observed

# From patent US20050079159A1, “In vivo bioreactors” (Massachusetts Instiute of Technology, priority 2001, published 2005)
